Laboratory results: patent publication US10077261B2, “Imidazolin-5-one derivative useful as FASN inhibitors for the treatment of cancer” (Janssen Pharmaceutica NV, priority 2012, dated 2018)

What was measured:
[1] = tested on: LNCaP-Vancouver prostate cells; test: In vitro LNCaP Vancouver prostate cell proliferation assay in lipid reduced medium; format: cell-based; conditions: read-out: pIC50 LNCaP_Vancouver prostate cell (converted)
[2] = target: T1, hFASN enzyme (full length) (Homo sapiens, UniProt P49327); test: Fatty Acid Synthase (FASN) inhibition scintillation proximity assay; format: biochemical; conditions: for inhibition at 10 µM: read-out: Human FASN % inhibition @ 10 μM, 10 μM test compound; for IC50: read-out: Human FASN pIC50 (converted)
T1 construct: 10 μL hFASN enzyme (full length, 300 ng, purified in house); made in house
T1 sequence (P49327 whole entry): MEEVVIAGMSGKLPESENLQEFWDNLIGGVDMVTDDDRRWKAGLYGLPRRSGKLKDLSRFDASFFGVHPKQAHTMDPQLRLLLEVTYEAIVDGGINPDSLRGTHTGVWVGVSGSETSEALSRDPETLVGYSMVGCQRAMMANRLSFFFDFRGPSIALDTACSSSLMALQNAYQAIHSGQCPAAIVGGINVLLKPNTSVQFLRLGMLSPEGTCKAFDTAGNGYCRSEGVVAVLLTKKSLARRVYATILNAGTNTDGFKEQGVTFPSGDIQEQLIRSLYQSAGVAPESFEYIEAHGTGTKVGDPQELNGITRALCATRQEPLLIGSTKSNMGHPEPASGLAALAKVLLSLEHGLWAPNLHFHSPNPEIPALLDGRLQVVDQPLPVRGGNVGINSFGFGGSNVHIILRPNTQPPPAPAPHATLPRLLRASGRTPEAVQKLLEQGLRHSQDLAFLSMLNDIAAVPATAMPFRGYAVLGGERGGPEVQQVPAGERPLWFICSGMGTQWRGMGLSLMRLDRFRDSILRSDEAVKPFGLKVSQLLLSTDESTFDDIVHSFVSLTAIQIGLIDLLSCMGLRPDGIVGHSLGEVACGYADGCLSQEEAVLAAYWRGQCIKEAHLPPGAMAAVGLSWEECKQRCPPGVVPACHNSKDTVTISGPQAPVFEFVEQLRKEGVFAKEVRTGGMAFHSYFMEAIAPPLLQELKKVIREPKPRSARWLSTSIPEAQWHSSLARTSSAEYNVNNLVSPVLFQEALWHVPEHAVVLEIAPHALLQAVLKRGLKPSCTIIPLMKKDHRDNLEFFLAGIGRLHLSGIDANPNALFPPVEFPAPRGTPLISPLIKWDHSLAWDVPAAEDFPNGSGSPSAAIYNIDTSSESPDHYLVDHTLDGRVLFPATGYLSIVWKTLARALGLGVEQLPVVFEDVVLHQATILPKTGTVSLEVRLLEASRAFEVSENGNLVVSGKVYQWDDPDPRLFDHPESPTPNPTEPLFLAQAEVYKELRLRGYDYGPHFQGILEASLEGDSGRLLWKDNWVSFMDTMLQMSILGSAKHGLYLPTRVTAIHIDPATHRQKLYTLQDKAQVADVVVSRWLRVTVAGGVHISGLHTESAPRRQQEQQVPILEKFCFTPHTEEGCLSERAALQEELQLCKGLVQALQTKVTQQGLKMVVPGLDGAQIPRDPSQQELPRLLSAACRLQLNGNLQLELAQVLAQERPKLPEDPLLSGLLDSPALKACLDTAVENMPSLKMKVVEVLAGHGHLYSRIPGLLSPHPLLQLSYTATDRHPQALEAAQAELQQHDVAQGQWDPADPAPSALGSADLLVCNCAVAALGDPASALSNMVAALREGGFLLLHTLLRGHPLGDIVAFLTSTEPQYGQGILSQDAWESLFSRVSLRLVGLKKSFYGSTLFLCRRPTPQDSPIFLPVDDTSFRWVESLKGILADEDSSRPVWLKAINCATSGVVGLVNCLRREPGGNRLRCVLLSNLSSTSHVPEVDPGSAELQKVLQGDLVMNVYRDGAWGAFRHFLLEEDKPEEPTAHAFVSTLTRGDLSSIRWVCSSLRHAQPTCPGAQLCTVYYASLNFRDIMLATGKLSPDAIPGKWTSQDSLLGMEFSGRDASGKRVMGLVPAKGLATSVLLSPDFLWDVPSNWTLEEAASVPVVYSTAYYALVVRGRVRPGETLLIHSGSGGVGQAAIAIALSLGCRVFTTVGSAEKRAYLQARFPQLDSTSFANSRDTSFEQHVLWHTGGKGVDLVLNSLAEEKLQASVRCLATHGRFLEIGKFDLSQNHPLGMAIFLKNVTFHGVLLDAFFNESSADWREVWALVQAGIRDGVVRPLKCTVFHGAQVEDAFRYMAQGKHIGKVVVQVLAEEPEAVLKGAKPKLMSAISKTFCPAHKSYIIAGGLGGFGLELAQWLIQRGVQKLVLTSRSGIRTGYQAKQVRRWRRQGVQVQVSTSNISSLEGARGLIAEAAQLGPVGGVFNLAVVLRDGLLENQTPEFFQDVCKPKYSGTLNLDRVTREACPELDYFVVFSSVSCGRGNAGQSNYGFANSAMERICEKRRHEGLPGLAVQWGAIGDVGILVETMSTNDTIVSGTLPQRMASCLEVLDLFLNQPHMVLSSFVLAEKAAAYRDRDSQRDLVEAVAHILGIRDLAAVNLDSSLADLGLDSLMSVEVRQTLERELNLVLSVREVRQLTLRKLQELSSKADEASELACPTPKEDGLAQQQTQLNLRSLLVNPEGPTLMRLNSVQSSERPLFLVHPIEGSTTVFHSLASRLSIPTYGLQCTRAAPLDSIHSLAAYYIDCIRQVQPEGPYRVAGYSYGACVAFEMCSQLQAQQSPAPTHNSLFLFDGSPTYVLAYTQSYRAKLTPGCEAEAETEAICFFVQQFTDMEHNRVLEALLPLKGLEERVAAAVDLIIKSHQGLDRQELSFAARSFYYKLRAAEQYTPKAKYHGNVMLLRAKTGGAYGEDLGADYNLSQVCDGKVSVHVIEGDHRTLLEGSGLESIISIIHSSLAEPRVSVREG
Outline: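 Full-length in-house purified enzyme (300 ng) was tested in 100 mM KH2PO4 pH 7.5, 1 mM DTT with ³H-acetyl-CoA and malonyl-CoA as substrates; compounds ranged 0.01–30 μM. Reactions were stopped with streptavidin imaging beads, read by LEADseeker at 610 nm, and fitted to a 4-parameter logistic curve.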

A2780 ovarian cells [3] = test: A2780 ovarian cell proliferation assay in lipid reduced medium, with palmitate (MTT); format: cell-based; conditions: Homo sapiens, A2780, 96 h; read-out: pIC50 A2780 Ovarian Cell, With Palmitate (converted)
Outline: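 Seeded cells were switched next day to lipid-reduced serum, exposed to compound and 25 μM palmitate complexed with fatty-acid-free BSA, and incubated 96 h. Proliferation was then determined by MTT absorbance at 544 nm, with a best-fit curve of signal against concentration.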

A2780 ovarian cells [4] = test: A2780 ovarian cell proliferation assay in lipid reduced medium, without palmitate (MTT); format: cell-based; conditions: Homo sapiens, A2780, 96 h; read-out: pIC50 A2780 Ovarian Cell, Without Palmitate (converted)
[5] = tested on: PC-3M-Luc-C6 prostate cells; test: In vitro PC-3M-Luc-C6 prostate cell proliferation assay in lipid reduced medium; format: cell-based; conditions: 96 h, read-out: pIC50 PC-3M-Luc-C6 prostate cell (converted)
[6] = target: Fatty Acid Synthase Keto-reductase Domain (FASN KR) (Homo sapiens, UniProt P49327); test: Fatty Acid Synthase keto-reductase domain (FASN KR) inhibition, NADPH oxidation at 340 nm
Chain of Fatty Acid Synthase Keto-reductase Domain (FASN KR) (P49327 whole entry, the tested form may be a part): as the sequence (P49327 whole entry) above
Method: After 20 minutes incubation at room temperature the plate was measured again (T2).
The decrease in absorbance was calculated as (Absorbance before incubation T1)−(Absorbance following incubation T2).
A plot of Controlmin versus test compound concentration was fitted to a 4-parameter logistic curve using a non-linear least squares regression method.

| SMILES | IC50 [1] [nM] | inhibition at 10 µM [2] [%] | IC50 [2] [nM] | IC50 (A2780 ovarian cells [3]) [nM] | IC50 (A2780 ovarian cells [4]) [nM] | IC50 [5] [nM] | IC50 [6] [nM] |
| --- | --- | --- | --- | --- | --- | --- | --- |
| O=C(C1CC1)N1CC(CN2C(=O)C3(CC3)N=C2c2ccc(-c3cc4ccccc4cn3)cc2)C1 [compound 531, 6-{[1-(Cyclopropylcarbonyl)azetidin-3-yl]methyl}-5-(4-isoquinolin-3-ylphenyl)-4,6-diazaspiro[2.4]hept-4-en-7-one] | 1350 | 96 | 170 | > 10000 | 148 | 302 | 537 |
| Cn1cc(-c2ccc(-c3ccc(C4=NC5(CC5)C(=O)N4CC4CN(C(=O)C5CC5)C4)cc3)nc2)cn1 [compound 534, 6-{[1-(Cycloprropylcarbonyl)azetidin-3-yl]methyl}-5-{4-[5-(1-methyl-1H-pyrazol-4-yl)pyridin-2-yl]phenyl}-4,6-diazaspiro[2.4]hept-4-en-7-one] | ~5620 | 95 | 162 | > 10000 | 776 | 1000 | 1380 |
| Cn1ccc2ccc(-c3ccc(C4=NC5(CC5)C(=O)N4CC4CN(C(=O)C5CC5)C4)cc3)cc21 [compound 541, 6-{[1-(Cyclopropylcarbonyl)azetidin-3-yl]methyl}-5-[4-(1-methyl-1H-indol-6-yl)phenyl]-4,6-diazaspiro[2.4]hept-4-en-7-one] | ~1020 | 100 | 110 | > 10000 | 282 | 309 | 339 |
| Cn1ccc(-c2ccc(-c3ccc(C4=NC5(CC5)C(=O)N4CC4CN(C(=O)C5CC5)C4)cc3)cc2)n1 [compound 542, 6-{[1-(Cyclopropylcarbonyl)azetidin-3-yl]methyl}-5-[4′-(1-methyl-1H-pyrazol-3-yl)biphenyl-4-yl]-4,6-diazaspiro[2.4]hept-4-en-7-one] | 3020 | 89 | 692 | > 10000 | 832 | 4470 | 1620 |
| CC(C)Cn1cc(-c2ccc(-c3ccc(C4=NC5(CC5)C(=O)N4CC4CN(C(=O)C5CC5)C4)cc3)cc2)cn1 [compound 544, 6-{[1-(Cyclopropylcarbonyl)azetidin-3-yl]methyl}-5-{4′-[1-(2-methylpropyl)-1H-pyrazol-4-yl]biphenyl-4-yl}-4,6-diazaspiro[2.4]hept-4-en-7-one] | 776 | 98 | 204 | 1620 | 52.5 | 141 | 724 |
| Cc1ccnc2cc(-c3ccc(C4=NC5(CC5)C(=O)N4CC4CN(C(=O)C5CC5)C4)cc3)ccc12 [compound 554, 6-{[1-(Cyclopropylcarbonyl)azetidin-3-yl]methyl}-5-[4-(4-methylquinolin-7-yl)phenyl]-4,6-diazaspiro[2.4]hept-4-en-7-one] | 646 | 97 | 129 | 7760 | ~145 | ~174 | 269 |
| Cn1nccc1-c1ccc(-c2ccc(C3=NC4(CC4)C(=O)N3CC3CN(C(=O)C4(C)CC4)C3)c(F)c2)cc1 [compound 566, 5-[3-Fluoro-4′-(1-methyl-1H-pyrazol-5-yl)biphenyl-4-yl]-6-({1-[(1-methylcyclopropyl)carbonyl]azetidin-3-yl}methyl)-4,6-diazaspiro[2.4]hept-4-en-7-one] | 1550 | 93 | 380 | > 10000 | 295 | 575 | 776 |
| Cc1ccc2ccc(-c3ccc(C4=NC5(CC5)C(=O)N4CC4CN(C(=O)C5(C)CC5)C4)c(C)c3)cc2n1 [compound 576, 6-({1-[(1-Methylcyclopropyl)carbonyl]azetidin-3-yl}methyl)-5-[2-methyl-4-(2-methylquinolin-7-yl)phenyl]-4,6-diazaspiro[2.4]hept-4-en-7-one] | 2140 | 99 | 380 | > 10000 | 288 | 676 | 676 |
| Cc1cc(-c2cccc(NS(=O)(=O)C3CC3)c2)ccc1C1=NC2(CC2)C(=O)N1CC1CN(C(=O)C2CC2)C1 [compound 578, N-[4′-(6-{[1-(Cyclopropylcarbonyl)azetidin-3-yl]methyl}-7-oxo-4,6-diazaspiro[2.4]hept-4-en-5-yl)-3′-methylbiphenyl-3-yl]cyclopropanesulfonamide] | 5010 | 92 | 646 | > 10000 | 331 | 871 | 1550 |

The remaining lines, values ahead:

| IC50 [1] [nM] | inhibition at 10 µM [2] [%] | IC50 [2] [nM] | IC50 (A2780 ovarian cells [3]) [nM] | IC50 (A2780 ovarian cells [4]) [nM] | IC50 [5] [nM] | IC50 [6] [nM] | SMILES |
| --- | --- | --- | --- | --- | --- | --- | --- |
| 3240 | 92 | 513 | > 10000 | 676 | 1170 | 1480 | O=C(C1CC1)N1CC(CN2C(=O)C3(CC3)N=C2c2ccc(-c3ccc4c(cnn4CC4CC4)c3)cc2F)C1 [compound 523, 6-{[1-(Cyclopropylcarbonyl)azetidin-3-yl]methyl}-5-{4-[1-(cyclopropylmethyl)-1H-indazol-5-yl]-2-fluorophenyl}-4,6-diazaspiro[2.4]hept-4-en-7-one] |
| 5890 | 93 | 912 | > 10000 | ~1020 | 1480 | 2190 | O=C(C1CC1)N1CC(CN2C(=O)C3(CC3)N=C2c2ccc(-c3ccc(-n4ccnc4)nc3)cc2F)C1 [compound 526, 6-{[1-(Cyclopropylcarbonyl)azetidin-3-yl]methyl}-5-{2-fluoro-4-[6-(1H-imidazol-1-yl)pyridin-3-yl]phenyl}-4,6-diazaspiro[2.4]hept-4-en-7-one] |
| 724 | 96 | 102 | > 10000 | ~83.2 | ~83.2 | 155 | O=C(C1CC1)N1CC[C@@H](CN2C(=O)C3(CC3)N=C2c2ccc(-c3n[nH]c4ccccc34)cc2F)C1 [compound 529, 6-{[(3R)-1-(Cyclopropylcarbonyl)pyrrolidin-3-yl]methyl}-5-[2-fluoro-4-(1H-indazol-3-yl)phenyl]-4,6-diazaspiro[2.4]hept-4-en-7-one] |
| ~7590 | 88 | 1230 | > 10000 | 955 | ~3090 | 3550 | O=C(C1CC1)N1CC(CN2C(=O)C3(CC3)N=C2c2ccc(-c3ccc4nn(CCO)cc4c3)cc2F)C1 [compound 536, 6-{[1-(Cyclopropylcarbonyl)azetidin-3-yl]methyl}-5-{2-fluoro-4-[2-(2-hydroxyethyl)-2H-indazol-5-yl]phenyl}-4,6-diazaspiro[2.4]hept-4-en-7-one] |
| 1320 | 99 | 174 | > 10000 | 263 | 617 | 427 | O=C(C1CC1)N1CC(CN2C(=O)C3(CC3)N=C2c2ccc(-c3ccc(Cl)cc3F)cc2F)C1 [compound 537, 5-(4′-Chloro-2′,3-difluorobiphenyl-4-yl)-6-{[1-(cyclopropylcarbonyl)azetidin-3-yl]methyl}-4,6-diazaspiro[2.4]hept-4-en-7-one] |
| 269 | 101 | 110 | > 10000 | 91.2 | 126 | 257 | Cc1cc(-c2ccc3c(cnn3C)c2)ccc1C1=NC2(CC2)C(=O)N1CC1CN(C(=O)C2CCO2)C1 (centres unmarked) [compound 545, 5-[2-Methyl-4-(1-methyl-1H-indazol-5-yl)phenyl]-6-{[1-(oxetan-2-ylcarbonyl)azetidin-3-yl]methyl}-4,6-diazaspiro[2.4]hept-4-en-7-one] |
| 2510 | 96 | 186 | 6310 | ~562 | 724 | 708 | Cc1nc2ccc(-c3ccc(C4=NC5(CC5)C(=O)N4CC4CN(C(=O)C5CC5)C4)c(F)c3)cc2s1 [compound 558, 6-{[1-(Cyclopropylcarbonyl)azetidin-3-yl]methyl}-5-[2-fluoro-4-(2-methyl-1,3-benzothiazol-6-yl)phenyl]-4,6-diazaspiro[2.4]hept-4-en-7-one] |
| 3090 | 97 | 245 | > 10000 | 955 | 1620 | 1380 | Cc1nc2cc(-c3ccc(C4=NC5(CC5)C(=O)N4CC4CN(C(=O)C5CC5)C4)cc3)ccc2s1 [compound 562, 6-{[1-(Cyclopropylcarbonyl)azetidin-3-yl]methyl}-5-[4-(2-methyl-1,3-benzothiazol-5-yl)phenyl]-4,6-diazaspiro[2.4]hept-4-en-7-one] |
